One test has as its system PD-L1. Description: PD-L1 expression on cell membrane of H1299 and PC9 cells (immunocytochemistry, Western blot). Type of test: cell-based, human. The settings on record: for PD-L1 expression restoration on the cell membrane by FOXM1 overexpression, by: TST 5 μM 48 hours in the presence of IFNγ; for reduction in the PD-L1 levels (cell membrane): TST in the presence of IFNγ, vs DMSO control. The procedure:
(§1) Cells were lysed in RIPA buffer supplemented with complete mini protease inhibitor cocktail (#04693124001; Roche, Basel, Switzerland) and kept on ice for 30 minutes. Equal amounts of protein were evenly loaded and analyzed by sodium dodecyl sulfate-polyacrylamide gel electrophoresis (SDS-PAGE), and transferred to polyvinylidene difluoride (PVDF) membranes (#IPVH 00010; Millipore, Billerica, MA, USA) at 100 V for 1 hour. Primary antibodies (Santa Cruz Biotechnology, Texas, USA) specific for FOXM1 (#sc-271746), cyclin E1 (#sc-481), α-tubulin (#sc-8035), and β-actin (#sc-47778); PD-L1 (#13684S), cyclin D1 (#2978S), cyclin B1 (#4138S), c-MYC (#5605S), and poly(ADP-ribose) polymerase (PARP, #9542S; Cell Signaling Technology, Beverly, MA, USA) were used to probe proteins of interest. A horseradish-peroxidase-conjugated secondary antibodies specific to the primary antibody was used to detect proteins using pico-enhanced chemiluminescence substrate (#34577; Thermo Fisher Scientific).
(§2) Cells were fixed in 4% paraformaldehyde (#30525-89-4; FUJIFILM Wako Chemical, Wako, Japan) for 15 minutes and blocked with 1% bovine serum albumin (BSA) in phosphate-buffered saline-0.01% Tween-20 (PBS-T) to reduce nonspecific antibody binding. Cells were then incubated overnight with an anti-PD-L1 antibody (#14598382; eBioscience, San Diego, CA, USA) diluted 1:200 and an anti-FOXM1 antibody (#sc-271746; Santa Cruz Biotechnology) diluted 1:50, followed by incubation with an Alexa Fluor 488-labeled secondary antibody (#A11029; Thermo Fisher Scientific) for 1 hour. Nuclei were stained with Hoechst 33342. After incubation, cells were washed with PBS and mounted on glass slides using Prolong Glass Antifade mounting medium (#P36982; Thermo Fisher Scientific). Confocal microscopy was performed using a Zeiss 730 Meta microscope (Carl Zeiss, Oberkochen, Germany) and analyzed using Axiovision software (Carl Zeiss).
(In general: In western blotting, separated proteins are transferred to a membrane and probed.)

A further test has as its target T1, FOXM1 (Homo sapiens, UniProt Q08050).
T1 construct: FLAG; expressed in transfected cells; host or cells: H1299 and PC9 cells
T1 sequence (Q08050 1-748 isoform Q08050-2): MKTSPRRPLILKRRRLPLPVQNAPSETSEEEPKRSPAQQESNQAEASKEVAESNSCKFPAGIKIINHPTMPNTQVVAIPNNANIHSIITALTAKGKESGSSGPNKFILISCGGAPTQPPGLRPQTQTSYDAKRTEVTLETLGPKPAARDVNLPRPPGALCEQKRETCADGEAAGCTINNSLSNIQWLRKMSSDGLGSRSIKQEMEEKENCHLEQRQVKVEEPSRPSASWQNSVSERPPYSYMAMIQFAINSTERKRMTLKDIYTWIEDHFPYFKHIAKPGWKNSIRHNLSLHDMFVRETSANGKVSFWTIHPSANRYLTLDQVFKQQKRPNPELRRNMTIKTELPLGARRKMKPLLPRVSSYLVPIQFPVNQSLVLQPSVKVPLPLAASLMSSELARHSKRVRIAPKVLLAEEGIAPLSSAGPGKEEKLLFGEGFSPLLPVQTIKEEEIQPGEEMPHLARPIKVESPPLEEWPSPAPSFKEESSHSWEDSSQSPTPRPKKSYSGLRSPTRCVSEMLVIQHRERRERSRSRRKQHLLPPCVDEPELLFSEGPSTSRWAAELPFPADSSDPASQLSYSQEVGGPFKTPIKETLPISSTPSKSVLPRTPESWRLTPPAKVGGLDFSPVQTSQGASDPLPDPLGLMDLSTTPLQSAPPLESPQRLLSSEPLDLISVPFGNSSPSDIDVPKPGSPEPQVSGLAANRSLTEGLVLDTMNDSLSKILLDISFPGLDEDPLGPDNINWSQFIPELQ
Description: FOXM1 protein levels and nuclear translocation (nuclear cytoplasmic fractionation, Western blot, ICC). The format is cell-based. The settings on record: for FOXM1 overexpression decreased by: TST-treated cells; for restoration of FOXM1 levels by overexpression of FOXM1 in treated cells: compared to mock transfection. The procedure: To confirm protein subcellular localization, lysis of H1299 and PC9 cell pellets was performed in Buffer A (10 mM HEPES, 10 mM KCl, 1.5 mM MgCl2, 0.5 mM dithiothreitol (DTT), and 0.05% IGEPAL CA-630 (pH 7.9)) for 10 minutes. The Buffer A lysate was centrifuged at 1,000×g for 10 minutes at 4° C. to collect the nuclear fraction. After removal of the cytosolic fraction, buffer B containing 5 mM HEPES, 0.2 mM EDTA, 1.5 mM MgCl2, 0.5 mM DTT, and 26% glycerol (v/v) (pH 7.9) was added to the nuclear fraction and lysed on ice for 30 minutes.
as §1, §2

For another test, the system named is MC38 cells. Description: Apoptotic cell death assay (Annexin V assay), MC38. The settings on record: TST 5 μM, 48 hours. Type of test: cell-based, mouse. The procedure: MC38 cells (8.0×10^4) were seeded in 6-well plates and cultured for 24 hours. The cells were treated with TST (5 μM) for 48 hours, harvested, and analyzed via FACS-Verse using a BD FITC Annexin V Apoptosis Detection Kit I (Cat No. 556547; BD Biosciences, San Diego, CA, USA) according to the manufacturer's protocol.

The next test deals with CD274 promoter. Description: ChIP-PCR of FOXM1 binding to CD274 promoter. Type of test: cell-based, human. The settings on record: H1299 and PC9; vs respective controls. The protocol:
To cross-link proteins to DNA, H1299 and PC9 cells were treated with 0.7% formaldehyde at 37° C. for 10 minutes. Cross-linking was quenched by adding glycine to the culture medium at a final concentration of 0.125 M for 5 minutes. The cells were sonicated using a Bioruptor Next Gen sonicator (Diagenode, Denville, NJ, USA) for 5 minutes in 30 s on/30 s off cycle to obtain ~500 bp DNA fragments. The sonicated cell lysates containing genomic DNA fragments were pre-cleared to eliminate unwanted nonspecific components. ChIP was performed using antibody against FOXM1 (#sc-271746, Santa Cruz Biotechnology) with rotation at 4° C. overnight, followed by various washing steps, reverse cross-linking, and protein digestion with proteinase K (#P2308; Sigma-Aldrich, St. Louis, MO, USA). The immunoprecipitated DNA fragments were purified using a phenol-chloroform method, and the purified DNA pellets were resuspended in TE buffer (pH 8.0) and used for PCR. Primers specifically detecting a FOXM1 binding region were designed using a Primer3 tool for chromatin immunoprecipitation-PCR (ChIP-PCR) (Table 1).

Regarding thiostrepton [TST], in the test on PD-L1 (H1299), the “elevated level of PD-L1 by pFLAG-FOXM1 overexpression decreased to” value turned out to be 41.9%; the “PD-L1 expression restoration on the cell membrane by FOXM1 overexpression, by” value was 38.7%; the “reduction in the PD-L1 levels (cell membrane)” value was 87.23%. For the same substance, in the test on PD-L1 (PC9), the “elevated level of PD-L1 by pFLAG-FOXM1 overexpression decreased to” value is listed as 68.0%; the “PD-L1 expression restoration on the cell membrane by FOXM1 overexpression, by” value is 46%; the “reduction in the PD-L1 levels (cell membrane)” value amounted to 85.82%. Also, at FOXM1 (H1299), the “FOXM1 overexpression decreased by” value is recorded as 63.7% and the “restoration of FOXM1 levels by overexpression of FOXM1 in treated cells” value was 84.33%. The “protein levels and nuclear translocation of FOXM1” value at FOXM1 (H1299 and PC9, TST 5 μM in the presence of IFN-γ 20 ng mL-1, or siFOXM1) is “decreased the protein levels and nuclear translocation of FOXM1”. Further, on FOXM1 (PC9), the “FOXM1 overexpression decreased by” value came to 44% and the “restoration of FOXM1 levels by overexpression of FOXM1 in treated cells” value is 57.56%. Besides, the “apoptotic cell death (flow cytometry)” value in the test with MC38 cells was “significantly increased apoptotic cell death”. Further, the “FOXM1 binding to the CD274 promoter” value with CD274 promoter is on record as “dramatic decrease”.

For the origin of these results see patent US20260248881A1, “PHARMACEUTICAL COMPOSITION COMPRISING FOXM1 INHIBITOR AND IMMUNE CHECKPOINT INHIBITOR FOR PREVENTING OR TREATING CANCER” (National Cancer Center, priority 2022, published 2026).
